Test results taken from PubChem BioAssay (NCI).
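Interpolation was linear, between the two tested concentrations surrounding the appropriate level; five concentrations were tested over 48 hours in 96-well plates. Here, GI50 denotes the concentration required for 50% inhibition of growth. TGI denotes the concentration required for complete inhibition of growth.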

Key:
Experiment in all cases: growth of human tumour cells (NCI), 48 h
[1] = tested on: MDA-MB-435
[2] = tested on: NCI/ADR-RES ovarian
[3] = tested on: BT-549 breast
[4] = tested on: HS 578T breast
[5] = tested on: DLD-1 colon
[6] = tested on: DMS 114 small cell lung
[7] = tested on: XF 498 CNS
[8] = tested on: MDA-N

Compound	GI50 [1]	TGI [1]	GI50 [2]	TGI [2]	GI50 [3]	TGI [3]	GI50 [4]	TGI [4]	TGI [5]	TGI [6]	other results
C[C@]12CC/C(=N\O)C[C@@H]1CC[C@@H]1[C@@H]2CC[C@]2(C)/C(=N/O)CC[C@@H]12	24800 nM	70.8 µM	44.2 µM	> 100 µM	–	–	–	–	–	–	–
N=C(N)c1ccc(CS(=O)(=O)F)cc1	> 100000 nM	> 100 µM	> 100 µM	> 100 µM	> 100000 nM	> 100 µM	> 100000 nM	> 100 µM	–	–	–
O=C1C[C@@H]2[C@@H](C=CC23CC3)N1O	–	–	–	–	–	–	–	–	> 100 µM	–	–
C/C(=N\NC(=O)C[n+]1ccccc1)c1sc(-c2nc(C)c(/C(C)=N/NC(=O)C[n+]3ccccc3)s2)nc1C	–	–	–	–	–	–	–	–	> 100 µM	> 100 µM	–
O=C1C2c3[nH]c4ccccc4c3C3CCC(c4ccccc4)CC3C2C(=O)N1c1ccccc1 (centres undefined)	–	–	–	–	–	–	–	–	> 100 µM	> 100 µM	TGI [7]: > 100 µM
N#Cc1c(N)n(C2OC(CO)C(O)C2O)c2ncnc(N)c12 (centres undefined)	–	0.0891 µM	–	0.137 µM	–	2.13 µM	–	2.16 µM	–	–	–
S=P(C1CCCCC1)(C1CCCCC1)C(c1cccnc1)N1CCCC1 (centres undefined)	–	33.6 µM	–	38.6 µM	–	35.6 µM	–	84.3 µM	–	–	TGI [8]: 39.3 µM
C[C@@]1([C@H](OC(=O)c2cccc3ccccc23)C(N)=O)CO1	–	1.74 µM	0.54 µM	4.8 µM	6150 nM	21.8 µM	3590 nM	> 24.6 µM	–	–	–
COc1ccc(/C=C(/C(=O)N2CCN(c3ccc(C)cc3)CC2)c2cc(OC)c(OC)c(OC)c2)cc1N	108 nM	–	0.293 µM	21.7 µM	199 nM	4.79 µM	291 nM	> 100 µM	–	–	–
CCN(CC)c1ccc(CNc2cc(C)nc3ccc(OC)cc23)cc1	1670 nM	3.38 µM	3.08 µM	14.3 µM	3220 nM	10.7 µM	2320 nM	6.73 µM	–	–	–
CN(Cc1ccccc1)c1ncnc2ccc(Br)cc12	4670 nM	16.6 µM	8.94 µM	33.3 µM	–	–	11500 nM	27.8 µM	–	–	–
COc1ccc(C(=C(C#N)C#N)c2ccc(OC)cc2)cc1	–	–	–	–	–	–	–	–	–	> 100 µM	–
CC[C@@]1(O)C(=O)OCc2c1cc1n(c2=O)Cc2cc3c([N+](=O)[O-])c(O)ccc3nc2-1	–	–	–	–	–	–	–	–	> 100 µM	1.2 µM	GI50 [5]: 9.41 µM; GI50 [6]: 60.1 nM; GI50 [7]: 1.09 µM; TGI [7]: 9.25 µM
CC/C=C\C[C@H](O)C/C=C1/C(=O)C=C[C@@H]1C/C=C\CCCC(=O)OCCS(=O)(=O)c1ccccc1	2510 nM	8.26 µM	3.43 µM	20.5 µM	–	–	23900 nM	> 100 µM	–	–	–
COc1cccc(-c2cc(C(=O)Nc3ccc(Cl)cc3)nc(N)n2)c1	–	–	–	–	–	–	–	–	> 100 µM	> 100 µM	TGI [7]: > 100 µM
CO[C@H](C(=O)O[C@H]1C(=O)N2CCC3CCC1C32C)c1ccccc1 (some centres undefined)	–	–	–	–	–	–	–	–	> 100 µM	> 100 µM	TGI [7]: > 100 µM

Compound	GI50 [1]	TGI [1]	GI50 [2]	TGI [2]	GI50 [3]	TGI [3]	GI50 [4]	TGI [4]	TGI [5]	TGI [6]	other results
[O-]c1ccccc1[C-]=Nc1ccccc1O.[O-]c1ccccc1[C-]=Nc1ccccc1O.[O]=[U]=[O]	–	–	–	–	–	–	–	–	41 µM	23.2 µM	GI50 [5]: 2.23 µM; GI50 [6]: 2400 nM; GI50 [7]: 20 µM; TGI [7]: 42 µM
CC[C@]12C=CCN3CC[C@@]4(c5ccc(OC)cc5N(C)[C@H]4[C@@](O)(C(=O)OC)[C@@H]1OC(=O)CCCC[P+](c1ccccc1)(c1ccccc1)c1ccccc1)[C@@H]32	359 nM	1.31 µM	> 100 µM	> 100 µM	465 nM	1.94 µM	1340 nM	9.11 µM	–	–	–
CCOc1cccc2sc(N)nc12	–	–	–	–	–	–	–	–	> 100 µM	> 100 µM	–
O=C1C2=C(C(=O)c3c(O)ccc(O)c31)N(c1cccnc1)Cc1ccccc1O2	398 nM	1.15 µM	0.861 µM	> 25.9 µM	392 nM	1.24 µM	–	–	–	–	–
Cc1ccc(C(=O)Nc2ccc(CN3CCN(C)CC3)c(C(F)(F)F)c2)cc1C#Cc1cnc(N)c2ccc(C#N)cc12	25.9 nM	1.65 µM	2.03 µM	10.1 µM	10100 nM	> 50 µM	161 nM	> 23.9 µM	–	–	–
C=CCNC(=O)ON1C(=O)CCC1=O	–	–	–	–	–	–	–	–	> 100 µM	> 100 µM	–
CN(C)C(=O)C(NCCO)c1ccccc1 (centres undefined)	–	> 100 µM	–	–	–	> 100 µM	–	> 100 µM	–	–	TGI [8]: > 100 µM
COC(=O)CCC(=O)Nc1cccc(C(F)(F)F)c1	–	–	–	–	–	–	–	–	> 100 µM	> 100 µM	TGI [7]: > 100 µM
COc1ccc2c3c(ccc2c1)NC(C(=O)O)CC3 (centres undefined)	–	> 100 µM	–	> 100 µM	–	> 100 µM	–	> 100 µM	–	–	TGI [8]: > 100 µM
O=C(/C=C/c1ccc[nH]1)c1ccccc1	–	–	–	–	–	–	–	–	> 100 µM	> 100 µM	–
Cc1cc(C)nc(NS(=O)(=O)c2ccc(Nc3nc4nc(NCc5ccccc5)nc(-c5ccc(O)cc5)c4c(=O)[nH]3)cc2)n1	21300 nM	> 100 µM	> 100 µM	> 100 µM	10800 nM	52.9 µM	14600 nM	88.6 µM	–	–	–
C=CC1CC12C(=O)C1OC2(C)C2C(=O)c3c(O)cccc3C(=O)C12 (centres undefined)	21000 nM	45.1 µM	27.9 µM	84.1 µM	53400 nM	> 100 µM	21800 nM	88.3 µM	–	–	–
CCCCCCCC(=O)SCC/C=C/[C@@H]1CC(=O)NCc2cccc(n2)C2=N[C@@](C)(CS2)C(=O)N[C@@H](C(C)C)C(=O)O1	29.2 nM	> 12.5 µM	0.319 µM	> 33.3 µM	190 nM	> 33.3 µM	20.9 nM	> 10.1 µM	–	–	–
COc1ccc(C(=O)OC2C(OC3C(O)COC(O[C@H]4C[C@H]5[C@@H]6CC=C7C[C@@H](O)CC[C@]7(C)[C@H]6CC[C@]5(C)[C@H]4[C@H](C)C(=O)CCC(C)C)C3OC(=O)C(C)C)OCC(O)C2O)cc1 (some centres undefined)	15.4 nM	0.216 µM	3.32 µM	7.2 µM	< 2.75 nM	3.26 µM	3.43 nM	0.0441 µM	–	–	–
C=C(c1ccc(OC)c(/C=C/C(=O)c2cc(OC)c(OC)c(OC)c2)c1)c1cc(OC)c(OC)c(OC)c1	–	–	0.936 µM	4.85 µM	894 nM	4.22 µM	1460 nM	50 µM	–	–	–
COc1ccc(-c2cnc(SCC(=O)c3c(C)n(C)n(-c4ccccc4)c3=O)n2-c2ccc(OC)cc2)cc1	> 50000 nM	> 50 µM	> 50 µM	> 50 µM	–	–	42600 nM	> 50 µM	–	–	–
